Like-named read-outs stand apart in the source and are kept apart here.
Assays:
[1] = Mouse liver microsomes stability with NADPH; settings: for half-life at 2 μM / microsomal CLint at 2 μM: male, mouse, microsomes; for Remaining Percentage (%) after 60 min, Mouse: mouse liver microsomes, with NADPH, 2 μM
Protocol: (§1) The objective of this study was to estimate in vitro metabolic stability of exemplary compounds in pooled human, male rat and male mouse liver microsomes. The concentrations of exemplary compounds in reaction systems were evaluated by LC-MS/MS for estimating the stability in pooled human, male rat and male mouse liver microsomes. The in vitro intrinsic clearances of test compounds were determined as well.
(§2) A master solution in the “Incubation Plate” containing phosphate buffer, ultra-pure H2O, MgCl2 solution and liver microsomes was made according to Table 3. The mixture was pre-warmed at 37° C. water bath for 5 minutes.
(§3) 40 μL of 10 mM NADPH solution was added to each well. The final concentration of NADPH was 1 mM. The negative control samples were prepared by replacing NADPH with 40 μL of ultra-pure H2O. Samples were prepared in duplicate. Negative controls were prepared in singlet.
(§4) The reaction was started with the addition of 4 μL of 200 μM exemplary test compounds or control compounds to each master solution to get the final concentration of 2 μM. This study was performed in duplicate.
(§5) Aliquots of 50 μL were taken from the reaction solution at 0, 15, 30, 45 and 60 minutes. The reaction solutions were stopped by the addition of 4 volumes of cold methanol with IS (100 nM alprazolam, 200 nM imipramine, 200 nM labetalol and 2 μM ketoprofen). Samples were centrifuged at 3,220 g for 40 minutes. Aliquot of 90 μL of the supernatant was mixed with 90 μL of ultra-pure H2O and then was used for LC-MS/MS analysis.
(§6) LC/MS analysis was performed for all samples from this study using a Shimadzu liquid chromatograph separation system equipped with degasser DGU-20A5R; solvent delivery unit LC-30AD; system controller SIL-30AC; column oven CTO-30A; CTC Analytics HTC PAL System. Mass spectrometric analysis was performed using an Triple Quad™ 5500 instrument.
(§7) All calculations were carried out using Microsoft Excel. Peak areas were determined from extracted ion chromatograms. The slope value, k, was determined by linear regression of the natural logarithm of the remaining percentage of the parent drug vs. incubation time curve.
(§8) Conversion of the in vitro t1/2 (min) into the in vitro intrinsic clearance (in vitro CLint, in μL/min/mg proteins) was done using the following equation (mean of duplicate determinations): […]

[2] = molecular target: human 5-HT2A receptor (Homo sapiens (Human), UniProt P28223); assay: Radioligand ([3H]-ketanserin) binding assay on human 5-HT2A receptor
Protocol: i. Prepare the assay buffer following the table below;
ii. Preparation of 8 doses of reference and exemplary test compounds starting from 10 mM stock solution as requested by 5-fold serial dilutions with 100%;
iii. […] a. Add 50 μl/well of 0.5% (v/v) PEI to UniFilter-96 GF/B plates. Seal the plates and incubate at 4° C. for 3 hrs; b. After incubation, wash the plates 3 times with ice-cold wash buffer (50 mM Tris, pH7.4);
iv. Preparation of assay plates: a. Dilute cell membrane with assay buffer and add 330 μl/well to 96 round deep well plates to reach a concentration of 20 μg/well; b. Prepare 8 concentrations of reference or exemplary test compounds and add 110 μl/well to 96 round deep well plates; c. Dilute [3H]-ketanserin with assay buffer to 5 nM (5× final concentration) and add 110 μl/well to 96 round deep well plates.
v. Centrifuge the plate at 1000 rpm for 30 secs and then agitate at 600 rpm, R.T. for 5 min.
vi. Seal the plates and incubate the plate at 27° C. for 90 min.
vii. Stop the incubation by vacuum filtration onto GF/B filter plates followed by 4 times washing with ice-cold wash buffer (50 mM Tris, pH7.4).
ix. Seal the filter plates and add 40 μl/well of scintillation cocktail.
x. Read the plate by using a Microbeta2 microplate counter.
For reference and exemplary test compounds, the results are expressed as % Inhibition, using the normalization equation: N=100−100×(U−C2)/(C1−C2), where U is the unknown value, C1 is the average of high controls, and C2 is the average of low controls. The IC50 is determined by fitting percentage of inhibition as a function of compound concentrations with Hill equation using XLfit.

[3] = Human liver microsomes stability with NADPH; settings: for Remaining Percentage (%) after 60 min, Human: human liver microsomes, with NADPH, 2 μM; for half-life at 2 μM / microsomal CLint at 2 μM: human, microsomes
Protocol: as §1, §2, §3, §4, §5, §6, §7, §8

[4] = molecular target: human 5-HT2A (h5-HT2A) receptor (Homo sapiens (Human), UniProt P28223); assay: FLIPR calcium assay, human 5-HT2A receptor, agonist mode; type: cell-based
Protocol: I. Assessment of the Activated Effect of Exemplary Compounds of Formula I Targeting on Human 5-HT2A (h5-HT2A) Receptor Under Agonist Mode:
1. Culture the cells in cell culture medium (DMEM containing 10% FBS, 1× penicillin-streptomycin 300 μg/ml G418 and 100 μg/ml hygromycin B) at 37° C., 5% (v/v) CO2.
2. One day before the assays, detach the cell using TrypLE™ Express and count cells using cell counter.
3. Seed 20000 cells/well in 30 μl/well culture medium to a 384-well cell plate and incubate the cells overnight at 37° C., 5% (v/v) CO2.
4. On the assay day, prepare 2×dye solution following the manual of the FLIPR® Calcium 6 Assay Kit: i. Dilute the dye with assay buffer(20 mM HEPES in 1× HBSS, PH7.4); ii. Add probenecid to the final concentration of 5 mM; iii. Vortex vigorously for 1-2 minutes.
5. Medium from cell plate by flicking the cell plate on towel papers.
6. Add 10 μl of assay buffer and 10 μl of 2×dye solution to each well of the cell plate.
7. Put the cell plate on plate shaker, agitate the plate at 600 rpm for 2 minutes. Incubate the plate at 37° C. for 2 hours followed by additional 15-minute incubation at 25° C.
8. Prepare 3×compound in assay buffer: a. Dilute reference compounds to required concentration with DMSO. Add the compounds to a 384-well compound plate; b. Perform serial dilutions; c. Add 10 mM test compounds to the compound plate, perform 3-fold serial dilutions. d. […] Add 20 μl/well assay buffer to the compound plate; f. Mix the plate on plate shaker for 2 mins;
i. The normalized fluorescence reading (RFU) is calculated as shown follow, while Fmax and Fmin stand for maximum and minimum of calcium signal during defined time window: RFU=Fmax−Fmin
ii. Calculate the percentage activation by using following equation: […]
iii. Calculate EC50 by fitting % activation against log of compound concentrations with Hill equation using XLfit.

[5] = Rat liver microsomes stability with NADPH; settings: for half-life at 2 μM / microsomal CLint at 2 μM: male, rat, microsomes; for Remaining Percentage (%) after 60 min, Rat: rat liver microsomes, with NADPH, 2 μM
Protocol: as §1, §2, §3, §4, §5, §6, §7, §8

Structure (SMILES): [2H]C([2H])([2H])N1CCC[C@@H]1Cc1c[nH]c2cccc(F)c12 [Compound I-40, (R)-4-fluoro-3-((1-(methyl-d3)pyrrolidin-2-yl)methyl)-1H-indole]
- half-life at 2 μM [1]: 63 min
- microsomal CLint at 2 μM [1]: 22 µL/min/mg
- Remaining Percentage (%) after 60 min, Mouse [1]: 51.70%
- IC50 [2]: < 500 nM
- Remaining Percentage (%) after 60 min, Human [3]: 35.69%
- half-life at 2 μM [3]: 40.4 min
- microsomal CLint at 2 μM [3]: 34.5 µL/min/mg
- EC50 [4]: < 1000 nM
- half-life at 2 μM [5]: 54.3 min
- microsomal CLint at 2 μM [5]: 25.5 µL/min/mg
- Remaining Percentage (%) after 60 min, Rat [5]: 46.51%

Structure (SMILES): CN1CCC[C@@H]1Cc1c[nH]c2cccc(O)c12 [Compound I-47, (R)-3-((1-methylpyrrolidin-2-yl)methyl)-1H-indol-4-ol]
- EC50 [4]: < 1000 nM

Structure (SMILES): [2H]C([2H])(c1c[nH]c2cccc(F)c12)[C@@H]1CCCN1C([2H])([2H])[2H] [Compound I-42, (S)-4-fluoro-3-((1-(methyl-d3)pyrrolidin-2-yl)methyl-d2)-1H-indole]
- IC50 [2]: > 5000 nM
- EC50 [4]: > 10000 nM

Structure (SMILES): [2H]C([2H])(c1c[nH]c2cccc(OC(=O)CCCCCCC/C=C\C/C=C\CCCCC)c12)[C@H]1CCCN1C([2H])([2H])[2H] [Compound I-49, 3-(((R)-1-(methyl-d3)pyrrolidin-2-yl)methyl-d2)-1H-indol-4-yl (9Z,12Z)-octadeca-9,12-dienoate]
- half-life at 2 μM [1]: 20.8 min
- microsomal CLint at 2 μM [1]: 66.5 µL/min/mg
- Remaining Percentage (%) after 60 min, Mouse [1]: 13.60%
- IC50 ([2]; [3H]-ketanserin competition binding, read-out: h5-HT2A IC50): < 500 nM
- Remaining Percentage (%) after 60 min, Human [3]: 86.81%
- half-life at 2 μM [3]: 294 min
- microsomal CLint at 2 μM [3]: 4.72 µL/min/mg
- EC50 ([4]; FLIPR, agonist mode, read-out: h5-HT2A EC50): 1000 to 10000 nM
- half-life at 2 μM [5]: 48.4 min
- microsomal CLint at 2 μM [5]: 28.6 µL/min/mg
- Remaining Percentage (%) after 60 min, Rat [5]: 42.38%

Structure (SMILES): Oc1cccc2[nH]cc(C[C@H]3CCCN3)c12 [Compound I-3, (R)-3-(pyrrolidin-2-ylmethyl)-1H-indol-4-ol]
- EC50 [4]: < 1000 nM

Structure (SMILES): [2H]C([2H])([2H])N1CCC[C@H]1Cc1c[nH]c2cccc(O)c12 [Compound I-53, (S)-3-((1-(methyl-d3)pyrrolidin-2-yl)methyl)-1H-indol-4-ol]
- IC50 [2]: > 5000 nM
- EC50 [4]: 1000 to 10000 nM

Structure (SMILES): [2H]C([2H])(c1c[nH]c2cccc(OP(=O)(O)O)c12)[C@H]1CCCN1C([2H])([2H])[2H] [Compound I-54, (R)-3-((1-(methyl-d3)pyrrolidin-2-yl)methyl-d2)-1H-indol-4-yl dihydrogen phosphate]
- EC50 [4]: 1000 to 10000 nM

Structure (SMILES): [2H]C([2H])([2H])N1CCC[C@H]1Cc1c[nH]c2cccc(OCc3ccccc3)c12 [Compound I-52, (S)-4-(benzyloxy)-3-((1-(methyl-d3)pyrrolidin-2-yl)methyl)-1H-indole]
- EC50 [4]: > 10000 nM

Structure (SMILES): [2H]C([2H])(c1c[nH]c2cccc(F)c12)[C@H]1CCCN1C([2H])([2H])[2H] [Compound I-37, (R)-4-fluoro-3-((1-(methyl-d3)pyrrolidin-2-yl)methyl-d2)-1H-indole]
- half-life at 2 μM [1]: 53.7 min
- microsomal CLint at 2 μM [1]: 25.8 µL/min/mg
- Remaining Percentage (%) after 60 min, Mouse [1]: 46.10%
- IC50 [2]: 500 to 5000 nM
- Remaining Percentage (%) after 60 min, Human [3]: 31.93%
- half-life at 2 μM [3]: 36.4 min
- microsomal CLint at 2 μM [3]: 38.1 µL/min/mg
- EC50 [4]: < 1000 nM
- half-life at 2 μM [5]: 29.8 min
- microsomal CLint at 2 μM [5]: 46.5 µL/min/mg
- Remaining Percentage (%) after 60 min, Rat [5]: 24.82%

Structure (SMILES): [2H]C([2H])(c1c[nH]c2cccc(OCc3ccccc3)c12)[C@H]1CCCN1C([2H])([2H])[2H] [Compound I-43, (R)-4-(benzyloxy)-3-((1-(methyl-d3)pyrrolidin-2-yl)methyl-d2)-1H-indole]
- EC50 [4]: > 10000 nM

Structure (SMILES): CN(C)CCc1c[nH]c2cccc(O)c12 [Psilocin, 4-hydroxy-N,N-dimethyltryptamine, reference compound]
- Remaining Percentage (%) after 60 min, Mouse [1]: 96.89%
- Remaining Percentage (%) after 60 min, Human [3]: 70.16%
- Remaining Percentage (%) after 60 min, Rat [5]: 62.68%

Structure (SMILES): [2H]C([2H])([2H])N1CCC[C@@H]1Cc1c[nH]c2cccc(OC(=O)CCCCCCC/C=C\C/C=C\CCCCC)c12 [Compound I-48, 3-(((R)-1-(methyl-d3)pyrrolidin-2-yl)methyl)-1H-indol-4-yl (9Z,12Z)-octadeca-9,12-dienoate]
- half-life at 2 μM [1]: 17.3 min
- microsomal CLint at 2 μM [1]: 80 µL/min/mg
- Remaining Percentage (%) after 60 min, Mouse [1]: 9.06%
- IC50 ([2]; read-out: h5-HT2A IC50, [3H]-ketanserin competition binding): < 500 nM
- Remaining Percentage (%) after 60 min, Human [3]: 34.38%
- half-life at 2 μM [3]: 73.4 min
- microsomal CLint at 2 μM [3]: 18.9 µL/min/mg
- EC50 ([4]; read-out: h5-HT2A EC50, FLIPR, agonist mode): 1000 to 10000 nM
- half-life at 2 μM [5]: 38.9 min
- microsomal CLint at 2 μM [5]: 35.6 µL/min/mg
- Remaining Percentage (%) after 60 min, Rat [5]: 41.86%

Structure (SMILES): [2H]C([2H])(c1c[nH]c2cccc(Cl)c12)[C@H]1CCCN1C([2H])([2H])[2H] [Compound I-38, (R)-4-chloro-3-((1-(methyl-d3)pyrrolidin-2-yl)methyl-d2)-1H-indole]
- IC50 [2]: < 500 nM
- EC50 [4]: > 10000 nM

Structure (SMILES): [2H]C([2H])(c1c[nH]c2cccc(F)c12)[C@H]1CCCN1 [Compound I-41, (R)-4-fluoro-3-(pyrrolidin-2-ylmethyl-d2)-1H-indole]
- IC50 [2]: 500 to 5000 nM
- EC50 [4]: 1000 to 10000 nM

Structure (SMILES): CN1CCC[C@@H]1Cc1c[nH]c2cccc(OCc3ccccc3)c12 [Compound I-46, (R)-4-(benzyloxy)-3-((1-methylpyrrolidin-2-yl)methyl)-1H-indole]
- EC50 [4]: > 10000 nM

Structure (SMILES): [2H]C([2H])([2H])N1CCC[C@@H]1Cc1c[nH]c2cccc(OCc3ccccc3)c12 [Compound I-45, (R)-4-(benzyloxy)-3-((1-(methyl-d3)pyrrolidin-2-yl)methyl)-1H-indole]
- EC50 [4]: > 10000 nM

Structure (SMILES): [2H]C([2H])(c1c[nH]c2cccc(O)c12)[C@@H]1CCCN1 [Compound I-51, (S)-3-(pyrrolidin-2-ylmethyl-d2)-1H-indol-4-ol]
- EC50 [4]: < 1000 nM
